The record followed here is patent publication US20240228458A1, “PYRIMIDINE DERIVATIVE HAVING PROTEIN KINASE INHIBITORY ACTIVITY, AND THERAPEUTIC PHARMACEUTICAL COMPOSITION COMPRISING SAME” (THERAPEX CO., LTD., priority 2021, published 2024).

A word on the GI50: it is the concentration at which growth is held to half of that of the control.

Common to all, as to type: cell-based
The subject of assay [1] is Ba/F3 cells expressing EGFR-wt. The experiment in a line: Growth inhibition (GI50) of Ba/F3 cells expressing EGFR-wt, Celltiter glo. The following applies: Mus musculus, BaF3, 72 h. Here is the method:
(§1) In this experimental example, a determination was made as to whether the compounds prepared in Examples 1-283 have the ability to inhibit the growth of Ba/F3 cells expressing EGFR-wt, del19/T790M/C797S (EGFR-DTC), L858R/T790M/C797S (EGFR-LTC), del19/T790M (EGFR-DT), and L858R/T790M (EGFR-LT) variants.
(§2) The parental Ba/F3 cell line is a population of cells that are not introduced with EGFR variants. Specifically, 100 μl of a cell line expressing each variant was plated in a 96-well plate at a density of 100,000 cells/ml. 10-point, 4-fold serial dilutions of each compound were prepared, starting at 2 mM. After 4 h, 0.5 μl of the compound (0.5% DMSO) was added, followed by incubation at 37° C. and 5% CO2 for 72 h. After incubation, the number of viable cells was measured using a Celltiter glo assay kit (Promega) and the GI50 of the compound was determined. The term “GI50” refers to the molar concentration (μM) of the compound required for 50% growth inhibition of cells.
For orientation: Cellular ATP, detected with luciferase, serves as a proxy for viable cell number.

A further assay has as its system parental Ba/F3 cell line. Description: Growth inhibition (GI50) of the parental Ba/F3 cell line (not introduced with EGFR variants), Celltiter glo. The following applies: Mus musculus, BaF3, 72 h, parental Ba/F3 cells. Here is the method: as §2
Assay [2] has as its system Ba/F3 cells expressing L858R/T790M/C797S (EGFR-LTC). Description: Growth inhibition (GI50) of Ba/F3 cells expressing L858R/T790M/C797S (EGFR-LTC), Celltiter glo. The following applies: Mus musculus, BaF3, 72 h. Here is the method:
as §1, §2

For assay [3], the system named is Ba/F3 cells expressing del19/T790M/C797S (EGFR-DTC). The experiment in a line: Growth inhibition (GI50) of Ba/F3 cells expressing del19/T790M/C797S (EGFR-DTC), Celltiter glo. The following applies: Mus musculus, BaF3, 72 h. Here is the method: as §1, §2

In the case of `COc1cc(N2CCC(N3CCN(C)CC3)CC2)c(C)cc1Nc1ncc(Cl)c(N(c2ccccc2NS(C)(=O)=O)S(C)(=O)=O)n1` [Example 9, N-(5-chloro-2-((2-methoxy-5-methyl-4-(4-(4-methylpiperazin-1-yl)piperidin-1-yl)phenyl)amino)pyrimidin-4-yl)-N-(2-(methylsulfonamido)phenyl)methanesulfonamide], the 50% growth inhibitory concentration (GI50) in assay [1] is 100 to 500 nM; in the assay with parental Ba/F3 cell line, 500 to 2000 nM; in assay [2] it was 25 to 100 nM; in assay [3], 100 to 500 nM.
`COc1nc(N2CCC(N3CCN(C)CC3)CC2)ccc1Nc1ncc(Cl)c(N(c2ccccc2NS(C)(=O)=O)S(C)(=O)=O)n1` [Example 10, N-(5-chloro-2-((2-methoxy-6-(4-(4-methylpiperazin-1-yl)piperidin-1-yl)pyridin-3-yl)amino)pyrimidin-4-yl)-N-(2-(methylsulfonamido)phenyl)methanesulfonamide]: the GI50 in assay [1] was 500 to 2000 nM; with parental Ba/F3 cell line it was 2000 to 10000 nM; in assay [2], 500 to 2000 nM; in assay [3], 500 to 2000 nM.
Turning to `COc1cc(N2CCC(N3CCN(C)CC3)CC2)c(C)cc1Nc1ncc(Cl)c(N(C)c2ccccc2N(C)S(C)(=O)=O)n1` [Example 11], the GI50 lay in the range of 2000 to 10000 nM in assay [1], 500 to 2000 nM in the assay on parental Ba/F3 cell line, 500 to 2000 nM in assay [2] and 500 to 2000 nM in assay [3].
`CN1CCN(C2CCN(c3ncc(Nc4ncc(Br)c(Nc5ccc(F)cc5NS(C)(=O)=O)n4)cc3F)CC2)CC1` [Example 25, N-(2-((5-bromo-2-((5-fluoro-6-(4-(4-methylpiperazin-1-yl)piperidin-1-yl)pyridin-3-yl)amino)pyrimidin-4-yl)amino)-5-fluorophenyl)methanesulfonamide]: the GI50 was in the range of 500 to 2000 nM in assay [1], 500 to 2000 nM in the assay on parental Ba/F3 cell line, 100 to 500 nM in assay [2] and 100 to 500 nM in assay [3].
Regarding `COc1cc(N2CCC(N3CCN(C)CC3)CC2)c(Cl)cc1Nc1ncc(Br)c(Nc2ccc(F)cc2NS(C)(=O)=O)n1` [Example 26, N-(2-((5-bromo-2-((5-chloro-2-methoxy-4-(4-(4-methylpiperazin-1-yl)piperidin-1-yl)phenyl)amino)pyrimidin-4-yl)amino)-5-fluorophenyl)methanesulfonamide], the GI50 in assay [1] fell in the range of 100 to 500 nM; in the assay with parental Ba/F3 cell line it was 2000 to 10000 nM; in assay [2] it was 25 to 100 nM; in assay [3], 25 to 100 nM.
For the compound `CN1CCN(C2CCN(c3ccc(Nc4ncc(Br)c(Nc5ccc(F)cc5NS(C)(=O)=O)n4)c(Cl)c3)CC2)CC1` [Example 27, N-(2-((5-bromo-2-((2-chloro-4-(4-(4-methylpiperazin-1-yl)piperidin-1-yl)phenyl)amino)pyrimidin-4-yl)amino)-5-fluorophenyl)methanesulfonamide], the concentration for 50% growth inhibition (GI50) in assay [1] lay within 2000 to 10000 nM; in the assay with parental Ba/F3 cell line it was 2000 to 10000 nM; in assay [2] it was 500 to 2000 nM; in assay [3], 100 to 500 nM.
`COc1nc(N2CCC(N3CCN(C)CC3)CC2)ccc1Nc1ncc(Br)c(Nc2ccc(F)cc2NS(C)(=O)=O)n1` [Example 28, N-(2-((5-bromo-2-((2-methoxy-6-(4-(4-methylpiperazin-1-yl)piperidin-1-yl)pyridin-3-yl)amino)pyrimidin-4-yl)amino)-5-fluorophenyl)methanesulfonamide]: the 50% growth inhibitory concentration (GI50) is 2000 to 10000 nM in assay [1], 2000 to 10000 nM in the assay with parental Ba/F3 cell line, 500 to 2000 nM in assay [2] and 500 to 2000 nM in assay [3].
`COc1nc(N2CCOCC2)ccc1Nc1ncc(Br)c(Nc2ccc(F)cc2NS(C)(=O)=O)n1` [Example 29, N-(2-((5-bromo-2-((2-methoxy-6-morpholinopyridin-3-yl)amino)pyrimidin-4-yl)amino)-5-fluorophenyl)methanesulfonamide]: the 50% growth inhibitory concentration (GI50) (in assay [1]; in the assay on parental Ba/F3 cell line; in assay [2]; in assay [3]) was more than 10000 nM each time.
As to `COc1nc(N2CCN(C3CC3)CC2)ccc1Nc1ncc(Br)c(Nc2ccc(F)cc2NS(C)(=O)=O)n1` [Example 30, N-(2-((5-bromo-2-((6-(4-cyclopropylpiperazin-1-yl)-2-methoxypyridin-3-yl)amino)pyrimidin-4-yl)amino)-5-fluorophenyl)methanesulfonamide], the GI50 in assay [1] is more than 10000 nM; in the assay with parental Ba/F3 cell line, more than 10000 nM; in assay [2] it was 2000 to 10000 nM; in assay [3] it was 2000 to 10000 nM.
Turning to `COc1nc(N2CCC(N3CCOCC3)CC2)ccc1Nc1ncc(Br)c(Nc2ccc(F)cc2NS(C)(=O)=O)n1` [Example 31, N-(2-((5-bromo-2-((2-methoxy-6-(4-morpholinopiperidin-1-yl)pyridin-3-yl)amino)pyrimidin-4-yl)amino)-5-fluorophenyl)methanesulfonamide], the 50% growth inhibitory concentration (GI50) in assay [1] was 2000 to 10000 nM; in the assay with parental Ba/F3 cell line, 2000 to 10000 nM; in assay [2], 2000 to 10000 nM; in assay [3] it was 500 to 2000 nM.
Regarding `COc1nc(N2CCC(C)(C)CC2)ccc1Nc1ncc(Br)c(Nc2ccc(F)cc2NS(C)(=O)=O)n1` [Example 32, N-(2-((5-bromo-2-((6-(4,4-dimethylpiperidin-1-yl)-2-methoxypyridin-3-yl)amino)pyrimidin-4-yl)amino)-5-fluorophenyl)methanesulfonamide], the GI50 (in assay [1]; in the assay with parental Ba/F3 cell line; in assay [2]; in assay [3]) was 2000 to 10000 nM in each case.
For `COc1nc(N2CCC(F)(F)CC2)ccc1Nc1ncc(Br)c(Nc2ccc(F)cc2NS(C)(=O)=O)n1` [Example 33, N-(2-((5-Bromo-2-((6-(4,4-difluoropiperidin-1-yl)-2-methoxypyridin-3-yl)amino)pyrimidin-4-yl)amino)-5-fluorophenyl)methanesulfonamide], the GI50 (in assay [1]; in the assay on parental Ba/F3 cell line; in assay [2]; in assay [3]) was 2000 to 10000 nM each time.
Take `CN1CCN(C2CCN(c3nc(Cl)c(Nc4ncc(Br)c(Nc5ccc(F)cc5NS(C)(=O)=O)n4)cc3C(F)(F)F)CC2)CC1` [Example 34, N-(2-((5-bromo-2-((2-chloro-6-(4-(4-methylpiperazin-1-yl)piperidin-1-yl)-5-(trifluoromethyl)pyridin-3-yl)amino)pyrimidin-4-yl)amino)-5-fluorophenyl)methanesulfonamide]: the GI50 in assay [1] was in the range of 2000 to 10000 nM; in the assay on parental Ba/F3 cell line, 2000 to 10000 nM; in assay [2] it was 100 to 500 nM; in assay [3] it was 500 to 2000 nM.
Regarding `CN1CCN(C2CCN(c3ccc4cc(Nc5ncc(Br)c(Nc6ccc(F)cc6NS(C)(=O)=O)n5)ccc4n3)CC2)CC1` [Example 35, N-(2-((5-bromo-2-((2-(4-(4-methylpiperazin-1-yl)piperidin-1-yl)quinolin-6-yl)amino)pyrimidin-4-yl)amino)-5-fluorophenyl)methanesulfonamide], the GI50 lay within 100 to 500 nM in assay [1], 100 to 500 nM with parental Ba/F3 cell line, 25 to 100 nM in assay [2] and 25 to 100 nM in assay [3].
In the case of `COc1nc(N2CCN(C3CCN(C)CC3)CC2)ccc1Nc1ncc(Br)c(Nc2ccc(F)cc2NS(C)(=O)=O)n1` [Example 36, N-(2-((5-bromo-2-((2-methoxy-6-(4-(1-methylpiperidin-4-yl)piperazin-1-yl)pyridin-3-yl)amino)pyrimidin-4-yl)amino)-5-fluorophenyl)methanesulfonamide], the GI50 was in the range of 500 to 2000 nM in assay [1], 2000 to 10000 nM with parental Ba/F3 cell line, 100 to 500 nM in assay [2] and 100 to 500 nM in assay [3].
